Results taken from US9630963B2, “Quinolone derivatives as fibroblast growth factor inhibitors” (Principia Biopharma, Inc., priority 2013, dated 2017).

Key:
human recombinant FGFR1 = human recombinant FGFR1 (Homo sapiens, UniProt P11362); experiment: FGFR family enzymatic activity assay (Caliper-based kinase assay), FGFR1; type: biochemical; conditions: FGFR1 0.5 nM, ATP 100 μM, peptide substrate 1 μM, room temperature 3 h
Source text: (§1) A Caliper-based kinase assay (Caliper Life Sciences, Hopkinton, Mass.) was used to measure inhibition of FGFR family (FGFR1, FGFR2, FGFR3, FGFR4) kinase activity of a compound of Formula (I′) or (I). […] This value is presented as the IC50.

human recombinant FGFR3 = human recombinant FGFR3 (Homo sapiens, UniProt P22607); experiment: FGFR family enzymatic activity assay (Caliper-based kinase assay), FGFR3; type: biochemical; conditions: FGFR3 0.9 nM, ATP 120 μM, peptide substrate 1 μM, room temperature 3 h
Source text: as §1

SNU-16 cells = experiment: Inhibition of FGFR2-dependent cell growth (Cell-titer Glo); type: cell-based; conditions: Homo sapiens, SNU16 cells, 72 hrs incubation, cell viability by Cell-titer Glo
Description: The cell-based effects of FGFR inhibitors were determined by measuring inhibition of FGFR-dependent cell line growth. […] Percent inhibition of cell growth was calculated as a percentage of untreated cell viability. The percent inhibition was plotted as a function of log compound concentration. The IC50 was then calculated for each compound using Prism software from GraphPad.

human recombinant FGFR2 = human recombinant FGFR2 (Homo sapiens, UniProt P21802); experiment: FGFR family enzymatic activity assay (Caliper-based kinase assay), FGFR2; type: biochemical; conditions: FGFR2 0.1 nM, ATP 75 μM, peptide substrate 1 μM, room temperature 3 h
Source text: as §1

human recombinant FGFR4 = human recombinant FGFR4 (Homo sapiens, UniProt P22455); experiment: FGFR family enzymatic activity assay (Caliper-based kinase assay), FGFR4; type: biochemical; conditions: FGFR4 2 nM, ATP 250 μM, peptide substrate 1 μM, room temperature 3 h
Source text: as §1

Chain of human recombinant FGFR4 (P22455 22-802): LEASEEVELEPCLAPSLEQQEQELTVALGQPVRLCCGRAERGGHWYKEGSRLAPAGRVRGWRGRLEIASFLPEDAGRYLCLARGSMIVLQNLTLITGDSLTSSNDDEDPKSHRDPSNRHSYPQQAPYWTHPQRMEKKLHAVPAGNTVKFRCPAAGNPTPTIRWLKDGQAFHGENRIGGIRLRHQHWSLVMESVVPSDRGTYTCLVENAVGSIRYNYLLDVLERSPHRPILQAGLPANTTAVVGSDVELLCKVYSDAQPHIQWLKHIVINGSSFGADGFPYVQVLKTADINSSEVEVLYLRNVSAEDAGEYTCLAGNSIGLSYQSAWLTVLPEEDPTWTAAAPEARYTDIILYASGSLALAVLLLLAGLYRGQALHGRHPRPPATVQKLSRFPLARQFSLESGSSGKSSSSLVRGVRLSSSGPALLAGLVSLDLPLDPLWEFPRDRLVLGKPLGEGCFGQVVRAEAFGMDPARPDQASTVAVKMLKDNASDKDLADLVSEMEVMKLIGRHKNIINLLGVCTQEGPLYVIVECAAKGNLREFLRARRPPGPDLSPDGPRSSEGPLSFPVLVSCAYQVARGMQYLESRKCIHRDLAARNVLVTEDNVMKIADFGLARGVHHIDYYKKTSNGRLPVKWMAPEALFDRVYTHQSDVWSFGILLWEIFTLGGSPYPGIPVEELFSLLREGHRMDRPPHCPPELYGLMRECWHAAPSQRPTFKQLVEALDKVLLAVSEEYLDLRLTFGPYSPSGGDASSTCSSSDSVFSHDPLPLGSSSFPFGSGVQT
Chain of human recombinant FGFR2 (P21802 22-821): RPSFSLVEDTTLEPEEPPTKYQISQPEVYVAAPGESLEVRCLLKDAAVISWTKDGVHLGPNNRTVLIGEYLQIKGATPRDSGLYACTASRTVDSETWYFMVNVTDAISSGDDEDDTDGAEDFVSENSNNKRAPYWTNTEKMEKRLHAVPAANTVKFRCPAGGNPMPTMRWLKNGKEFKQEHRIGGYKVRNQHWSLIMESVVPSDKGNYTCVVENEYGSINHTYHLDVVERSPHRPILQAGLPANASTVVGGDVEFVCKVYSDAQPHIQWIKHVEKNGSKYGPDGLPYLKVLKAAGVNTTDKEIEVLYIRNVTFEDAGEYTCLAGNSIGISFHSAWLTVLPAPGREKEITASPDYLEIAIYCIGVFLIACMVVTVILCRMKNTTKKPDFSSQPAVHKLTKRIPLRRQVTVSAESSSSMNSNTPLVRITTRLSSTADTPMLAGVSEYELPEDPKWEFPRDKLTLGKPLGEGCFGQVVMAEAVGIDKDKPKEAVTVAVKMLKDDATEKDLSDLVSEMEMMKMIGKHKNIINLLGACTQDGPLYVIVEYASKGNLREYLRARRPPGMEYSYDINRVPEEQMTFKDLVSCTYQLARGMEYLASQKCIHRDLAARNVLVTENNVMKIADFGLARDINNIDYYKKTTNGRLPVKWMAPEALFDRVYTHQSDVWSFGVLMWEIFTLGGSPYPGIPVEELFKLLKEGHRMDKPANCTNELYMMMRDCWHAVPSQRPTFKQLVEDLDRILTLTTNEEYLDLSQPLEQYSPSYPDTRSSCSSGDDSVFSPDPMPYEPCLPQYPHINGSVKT
Chain of human recombinant FGFR1 (P11362 22-822): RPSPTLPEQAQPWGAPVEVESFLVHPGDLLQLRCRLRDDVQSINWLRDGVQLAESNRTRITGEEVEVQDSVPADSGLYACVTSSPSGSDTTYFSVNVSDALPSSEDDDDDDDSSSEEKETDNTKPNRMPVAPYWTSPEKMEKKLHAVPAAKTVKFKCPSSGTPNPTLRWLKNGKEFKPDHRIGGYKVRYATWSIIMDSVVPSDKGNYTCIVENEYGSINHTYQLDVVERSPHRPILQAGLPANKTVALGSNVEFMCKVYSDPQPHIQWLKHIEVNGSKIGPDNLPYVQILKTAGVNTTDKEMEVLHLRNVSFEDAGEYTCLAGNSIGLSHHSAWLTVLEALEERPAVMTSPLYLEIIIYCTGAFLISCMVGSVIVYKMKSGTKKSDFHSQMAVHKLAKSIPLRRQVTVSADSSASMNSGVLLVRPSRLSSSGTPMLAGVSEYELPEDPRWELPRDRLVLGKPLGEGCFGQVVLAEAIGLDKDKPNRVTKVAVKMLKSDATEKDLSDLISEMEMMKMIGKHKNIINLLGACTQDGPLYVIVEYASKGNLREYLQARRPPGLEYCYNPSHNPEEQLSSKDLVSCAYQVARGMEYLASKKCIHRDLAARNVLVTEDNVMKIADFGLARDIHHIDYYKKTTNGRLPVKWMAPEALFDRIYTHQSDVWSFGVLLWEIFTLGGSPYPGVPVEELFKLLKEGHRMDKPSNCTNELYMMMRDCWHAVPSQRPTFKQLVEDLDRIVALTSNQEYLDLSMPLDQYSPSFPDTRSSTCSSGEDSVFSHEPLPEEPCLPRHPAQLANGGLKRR
Chain of human recombinant FGFR3 (P22607 23-806): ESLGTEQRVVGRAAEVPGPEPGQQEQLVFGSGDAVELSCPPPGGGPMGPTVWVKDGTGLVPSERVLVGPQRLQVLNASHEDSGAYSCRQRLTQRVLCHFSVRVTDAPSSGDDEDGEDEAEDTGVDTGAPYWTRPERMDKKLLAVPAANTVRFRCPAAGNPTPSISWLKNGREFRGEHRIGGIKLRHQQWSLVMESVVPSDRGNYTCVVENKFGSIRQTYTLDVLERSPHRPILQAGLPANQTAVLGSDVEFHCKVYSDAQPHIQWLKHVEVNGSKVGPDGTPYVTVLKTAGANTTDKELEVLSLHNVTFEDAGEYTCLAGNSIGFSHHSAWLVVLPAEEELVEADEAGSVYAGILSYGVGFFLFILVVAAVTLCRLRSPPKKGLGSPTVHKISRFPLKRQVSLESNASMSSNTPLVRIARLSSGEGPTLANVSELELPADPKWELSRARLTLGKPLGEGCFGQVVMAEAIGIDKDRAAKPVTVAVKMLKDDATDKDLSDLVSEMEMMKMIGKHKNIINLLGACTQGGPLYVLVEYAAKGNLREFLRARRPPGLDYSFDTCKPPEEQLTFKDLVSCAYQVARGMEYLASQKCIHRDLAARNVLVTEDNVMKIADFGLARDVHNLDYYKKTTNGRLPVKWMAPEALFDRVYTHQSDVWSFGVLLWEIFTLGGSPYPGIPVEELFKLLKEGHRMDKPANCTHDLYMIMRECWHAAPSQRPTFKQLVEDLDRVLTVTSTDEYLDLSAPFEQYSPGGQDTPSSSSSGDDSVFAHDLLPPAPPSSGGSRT

SMILES	IC50 (human recombinant FGFR1) [nM]	IC50 (human recombinant FGFR3) [nM]	IC50 (SNU-16 cells) [nM]	IC50 (human recombinant FGFR2) [nM]	IC50 (human recombinant FGFR4) [nM]
C=CC(=O)Nc1cccc(CCn2c(=O)c(-c3cc(OC)cc(OC)c3)cc3cnc(NC)nc32)c1 [Example 8, N-(3-(2-(6-(3,5-dimethoxyphenyl)-2-(methylamino)-7-oxopyrido[2,3-d]pyrimidin-8(7H)-yl)ethyl)phenyl)acrylamide]	31.2	19	83	–	–
C=CC(=O)Nc1ccc(CCn2c(=O)c(-c3cc(OC)cc(OC)c3Cl)cc3cnc(NCCN4CCOCC4)nc32)cc1F [Example 54, N-(4-(2-(6-(2-chloro-3,5-dimethoxyphenyl)-2-((2-morpholinoethyl)amino)-7-oxopyrido[2,3-d]pyrimidin-8(7H)-yl)ethyl)-2-fluorophenyl)acrylamide]	11.7	–	33.3	–	–
C#CCNc1ncc2cc(-c3c(Cl)c(OC)cc(OC)c3Cl)c(=O)n(CCc3ccc(NC(=O)C=C)cn3)c2n1 [Example 101, N-(6-(2-(6-(2,6-dichloro-3,5-dimethoxyphenyl)-7-oxo-2-(prop-2-yn-1-ylamino)-pyrido[2,3-d]pyrimidin-8(7H)-yl)ethyl)pyridin-3-yl)acrylamide]	0.3	–	1.6	–	–
C=CC(=O)Nc1cnc(CCn2c(=O)c(-c3cc(OC)cc(OC)c3Cl)cc3cnc(NCCN4CCOCC4)nc32)cn1 [Example 47, N-(5-(2-(6-(2-chloro-3,5-dimethoxyphenyl)-2-((2-morpholinoethyl)amino)-7-oxopyrido[2,3-d]pyrimidin-8(7H)-yl)ethyl)pyrazin-2-yl)acrylamide]	3	–	82.4	–	–
C=CS(=O)(=O)Nc1cccc(CCn2c(=O)c(-c3cc(OC)cc(OC)c3Cl)cc3cnc(NC)nc32)c1 [Example 21, N-(3-(2-(6-(2-chloro-3,5-dimethoxyphenyl)-2-(methylamino)-7-oxopyrido[2,3-d]pyrimidin-8(7H)-yl)ethyl)phenyl)ethenesulfonamide]	6.7	–	115	–	–
C=CC(=O)Nc1cccc(CCn2c(=O)c(-c3cc(OC)cc(OC)c3F)cc3cnc(NCCN4CCOCC4)nc32)c1 [Example 52, N-(3-(2-(6-(2-fluoro-3,5-dimethoxyphenyl)-2-(2-morpholin-4-ylethyllamino)-7-oxopyrido[2,3-d]pyrimidin-8(7H)-yl)ethyl)phenyl)acrylamide]	5.4	–	15	–	–
C=CC(=O)Nc1ccc(CCn2c(=O)c(-c3c(Cl)c(OC)cc(OC)c3Cl)cc3cnc(NCC(C)(C)CO)nc32)nc1 [Example 97, N-(6-(2-(6-(2,6-dichloro-3,5-dimethoxyphenyl)-2-((3-hydroxy-2,2-dimethylpropyl)-amino)-7-oxopyrido[2,3-d]pyrimidin-8(7H)-yl)ethyl)pyridin-3-yl)acrylamide]	1.5	–	6.4	–	–
C=CC(=O)Nc1ccc(CCn2c(=O)c(-c3cc(OC)cc(OC)c3Cl)cc3cnc(NCC(C)(C)C)nc32)cn1 [Example 30, N-(5-(2-(6-(2-chloro-3,5-dimethoxyphenyl)-2-(neopentylamino)-7-oxopyrido[2,3-d]pyrimidin-8(7H)-yl)ethyl)pyridin-2-yl)acrylamide]	5.1	–	5	–	–
C=CC(=O)Nc1ccc(CCn2c(=O)c(-c3cc(OC)cc(OC)c3Cl)cc3cnc(NC)nc32)cn1 [Example 16, N-(5-(2-(6-(2-chloro-3,5-dimethoxyphenyl)-2-(methylamino)-7-oxopyrido[2,3-d]pyrimidin-8(7H)-yl)ethyl)pyridin-2-yl)acrylamide]	–	2.3	–	1.7	6.9
C=CC(=O)Nc1ccc(CCn2c(=O)c(-c3c(Cl)c(OC)cc(OC)c3Cl)cc3cnc(NC(CO)CO)nc32)nc1 [Example 87, N-(6-(2-(6-(2,6-dichloro-3,5-dimethoxyphenyl)-2-((1,3-dihydroxypropan-2-yl)amino)-7-oxopyrido[2,3-d]pyrimidin-8(7H)-yl)ethyl)pyridin-3-yl)acrylamide]	1.2	–	169	–	–
C=CC(=O)Nc1ccc(CCn2c(=O)c(-c3cc(OC)cc(OC)c3Cl)cc3cnc(N)nc32)cc1 [Example 27, N-(4-(2-(2-amino-6-(2-chloro-3,5-dimethoxyphenyl)-7-oxopyrido[2,3-d]pyrimidin-8(7H)-yl)ethyl)phenyl)acrylamide]	0.9	–	7.4	–	–
C=CC(=O)Nc1ccc(CCn2c(=O)c(-c3c(Cl)c(OC)cc(OC)c3Cl)cc3cnc(NC(CC)(CO)CO)nc32)cc1 [Example 92, N-(4-(2-(6-(2,6-dichloro-3,5-dimethoxyphenyl)-2-((1-hydroxy-2-(hydroxymethyl)-butan-2-yl)amino)-7-oxopyrido[2,3-d]pyrimidin-8(7H)-yl)ethyl)phenyl)acrylamide]	1.1	–	6.3	–	–
C=CC(=O)Nc1ccc(CCn2c(=O)c(-c3cc(OC)cc(OC)c3Cl)cc3cnc(NCCCCN(CC)CC)nc32)cn1 [Example 32, N-(5-(2-(6-(2-chloro-3,5-dimethoxyphenyl)-2-((4-(diethylamino)butyl)amino)-7-oxopyrido[2,3-d]pyrimidin-8 (7H)-yl)ethyl)pyridin-2-yl)acrylamide]	1.2	–	6.7	–	–
C=CC(=O)Nc1cccc(CCn2c(=O)c(-c3cc(OC)cc(OC)c3)cc3cnc(NC)nc32)n1 [Example 11, N-(6-(2-(6-(3,5-dimethoxyphenyl)-2-(methylamino)-7-oxopyrido[2,3-d]pyrimidin-8(7H)-yl)ethyl)pyridin-2-yl)acrylamide]	22.2	–	94.2	–	–
C=CC(=O)Nc1ccc(CCn2c(=O)c(-c3c(Cl)c(OC)cc(OC)c3Cl)cc3cnc(NCC4CC4)nc32)cc1 [Example 90, N-(4-(2-(2-((cyclopropylmethyl)amino)-6-(2,6-dichloro-3,5-dimethoxyphenyl)-7-oxopyrido[2,3-d]pyrimidin-8(7H)-yl)ethyl)phenyl)acrylamide]	1.8	–	4.6	–	–
CNc1ncc2cc(-c3cc(OC)cc(OC)c3Cl)c(=O)n(CCc3ccc(NS(=O)(=O)C=C(C)C)cc3)c2n1 [Example 45, N-(4-(2-(6-(2-chloro-3,5-dimethoxyphenyl)-2-(methylamino)-7-oxopyrido[2,3-d]pyrimidin-8(7H)-yl)ethyl)phenyl)-2-methylprop-1-ene-1-sulfonamide]	4	–	48	–	–

More lines, now with the values ahead:

IC50 (human recombinant FGFR1) [nM]	IC50 (human recombinant FGFR3) [nM]	IC50 (SNU-16 cells) [nM]	IC50 (human recombinant FGFR2) [nM]	IC50 (human recombinant FGFR4) [nM]	SMILES
–	6.3	–	2	41	C=CC(=O)Nc1ccc(CCn2c(=O)c(-c3cc(OC)cc(OC)c3Cl)cc3cnc(NCCN4CCN(C(C)=O)CC4)nc32)cc1 [Example 66, N-(4-(2-(2-((2-(4-acetylpiperazin-1-yl)ethyl)amino)-6-(2-chloro-3,5-dimethoxy-phenyl)-7-oxopyrido[2,3-d]pyrimidin-8(7H)-yl)ethyl)phenyl)acrylamide]
–	6.8	–	1.5	43.3	C=CC(=O)Nc1ccc(CCn2c(=O)c(-c3cc(OC)cc(OC)c3Cl)cc3cnc(NC(CO)CO)nc32)cc1 [Example 72, N-(4-(2-(6-(2-chloro-3,5-dimethoxyphenyl)-2-((1,3-dihydroxypropan-2-yl)amino)-7-oxopyrido[2,3-d]pyrimidin-8(7H)-yl)ethyl)phenyl)acrylamide]
2.4	–	3	–	–	C=CC(=O)Nc1ccc(CCn2c(=O)c(-c3cc(OC)cc(OC)c3Cl)cc3cnc(NCCCN(CC)CC)nc32)cc1 [Example 40, N-(4-(2-(6-(2-chloro-3,5-dimethoxyphenyl)-2-((3-(diethylamino)propyl)amino)-7-oxopyrido[2,3-d]pyrimidin-8(7H)-yl)ethyl)phenyl)acrylamide]
1.4	–	3.6	–	–	C=CC(=O)Nc1ccc(CCn2c(=O)c(-c3cc(OC)cc(OC)c3Cl)cc3cnc(NCCN4CCOCC4)nc32)cn1 [Example 31, N-(5-(2-(6-(2-chloro-3,5-dimethoxyphenyl)-2-(2-morpholinoethylamino)-7-oxopyrido[2,3-d]pyrimidin-8(7H)-yl)ethyl)pyridin-2-yl)acrylamide]
–	2.3	–	1.4	25.6	C=CC(=O)Nc1ccc(CCn2c(=O)c(-c3cc(OC)cc(OC)c3Cl)cc3cnc(NC)nc32)cc1 [Example 13, N-(4-(2-(6-(2-chloro-3,5-dimethoxyphenyl)-2-(methylamino)-7-oxopyrido[2,3-d]pyrimidin-8(7H)-yl)ethyl)phenyl)acrylamide]
–	6	–	2	42.4	C=CC(=O)Nc1ccc(CCn2c(=O)c(-c3cc(OC)cc(OC)c3Cl)cc3cnc(NCCO)nc32)cc1 [Example 69, N-(4-(2-(6-(2-chloro-3,5-dimethoxyphenyl)-2-((2-hydroxyethyl)amino)-7-oxopyrido[2,3-d]pyrimidin-8(7H)-yl)ethyl)phenyl)acrylamide]
2.3	–	9.7	–	–	C=CC(=O)Nc1ccc(CCn2c(=O)c(-c3cc(OC)cc(OC)c3Cl)cc3cnc(NC(C)(C)CN4CCOCC4)nc32)cc1 [Example 67, N-(4-(2-(6-(2-chloro-3,5-dimethoxyphenyl)-2-((2-methyl-1-morpholinopropan-2-yl)amino)-7-oxopyrido[2,3-d]pyrimidin-8(7H)-yl)ethyl)phenyl)acrylamide]
